Experimental findings from patent publication US20230303570A1, “KINASE INHIBITORS AND USES THEREOF” (ABM Therapeutics Corporation, priority 2020, published 2023) are described below.

Some results are limits rather than exact numbers.

The target in one assay is PAK1 (Homo sapiens, UniProt Q13153). Put plainly: In vitro kinase assay, PAK1 (Caliper EZ Reader conversion). The format is biochemical. On the set-up: purchased Carna Biosciences. Here is the method: (§1) The effect of the compounds on the activity of SRC and PAK1 kinase were assessed. SRC and PAK1 kinase enzymes were obtained from Carna Biosciences.
Chain of PAK1 (Q13153 whole entry): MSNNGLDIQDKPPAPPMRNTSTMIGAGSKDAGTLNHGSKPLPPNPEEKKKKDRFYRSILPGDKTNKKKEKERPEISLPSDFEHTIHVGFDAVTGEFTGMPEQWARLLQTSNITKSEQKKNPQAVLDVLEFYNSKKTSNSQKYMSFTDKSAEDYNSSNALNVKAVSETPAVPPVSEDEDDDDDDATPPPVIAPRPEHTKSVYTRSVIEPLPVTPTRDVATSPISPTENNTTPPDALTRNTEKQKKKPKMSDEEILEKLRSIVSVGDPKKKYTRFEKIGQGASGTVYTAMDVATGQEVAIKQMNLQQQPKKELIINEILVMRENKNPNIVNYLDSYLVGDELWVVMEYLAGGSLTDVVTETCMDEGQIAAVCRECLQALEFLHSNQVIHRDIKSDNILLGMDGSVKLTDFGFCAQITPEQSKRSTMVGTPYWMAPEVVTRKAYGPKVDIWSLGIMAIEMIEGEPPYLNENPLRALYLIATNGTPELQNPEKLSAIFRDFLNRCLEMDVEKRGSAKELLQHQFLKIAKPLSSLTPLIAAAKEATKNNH
Test compounds were dissolved in 100% DMSO to prepare a 20 mM stock. Compounds were stored in −20° C. and protected from light. A 100×solution of the compounds were prepared, from which 4-fold serial dilutions was made to achieve a total of 6 concentrations. Saracatinib was used as a positive control for the SRC assay, and FRAX597 was used as a positive control for the PAK1 assay. For the positive controls, a 3-fold serial dilution was made to achieve a total of 10 concentrations. 10 μL 1× Kinase buffer was used as the negative control.
First, 250 nL of the compounds at each dilution were transferred into wells of a 384-well plate. The PAK1 and SRC kinases were diluted to a 2.5×final concentration with 1×Kinase buffer. Then, 10 μL of enzyme mix was added to the 384-well plate, and the enzymes and compounds were pre-incubated at room temperature for 10 minutes. […] Then, 15 μL of substrate mix was added to a 384-well plate and reacted at room temperature for 30 min and 60 min. The reaction was stopped by adding 30 μL of the stop buffer, and the conversion rate was read using a Caliper EZ Reader.
(§2) Percent inhibition is calculated according to the following equation: […]
(§3) wherein “Conversion %_sample” is the conversion percentage value of the sample; “Conversion %_min” is the average conversion percentage value of the negative control; and “Conversion %_max” is the average conversion percentage value of the positive control.
(§4) The dose-response curve was fitted using GraphPad Prism software (version 5, […]), and the IC50 values for each compounds were calculated by log(inhibitor) vs. response using a variable slope program with the following formula:
(§5) Y=Bottom+(Top-Bottom)/(1+10^((Log IC50−X)*HillSlope))

In a further assay the target is T1, SRC (Homo sapiens, UniProt P12931).
T1 construct: purchased Carna Biosciences
T1 sequence (P12931 whole entry): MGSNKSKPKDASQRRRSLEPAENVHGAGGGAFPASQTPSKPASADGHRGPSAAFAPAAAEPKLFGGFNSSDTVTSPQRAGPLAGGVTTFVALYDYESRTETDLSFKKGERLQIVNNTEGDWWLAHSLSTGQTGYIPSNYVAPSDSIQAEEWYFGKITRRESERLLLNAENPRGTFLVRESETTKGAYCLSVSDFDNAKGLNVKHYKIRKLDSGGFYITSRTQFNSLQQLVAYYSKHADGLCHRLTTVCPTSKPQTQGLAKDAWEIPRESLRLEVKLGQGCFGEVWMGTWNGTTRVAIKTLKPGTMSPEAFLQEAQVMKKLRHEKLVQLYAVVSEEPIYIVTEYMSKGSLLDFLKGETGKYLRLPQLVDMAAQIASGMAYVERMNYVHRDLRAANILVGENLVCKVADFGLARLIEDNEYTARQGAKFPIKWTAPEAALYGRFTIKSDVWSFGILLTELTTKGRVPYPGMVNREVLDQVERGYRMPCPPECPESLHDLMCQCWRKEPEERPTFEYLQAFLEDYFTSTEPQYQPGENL
Put plainly: In vitro kinase assay, SRC (Caliper EZ Reader conversion). The assay is classed as biochemical. The note with it: read-out: SRC IC50. Here is the method: as §1
Test compounds were dissolved in 100% DMSO to prepare a 20 mM stock. Compounds were stored in −20° C. and protected from light. […] Saracatinib was used as a positive control for the SRC assay, and FRAX597 was used as a positive control for the PAK1 assay. For the positive controls, a 3-fold serial dilution was made to achieve a total of 10 concentrations. 10 μL 1× Kinase buffer was used as the negative control.
First, 250 nL of the compounds at each dilution were transferred into wells of a 384-well plate. […] Then, 10 μL of enzyme mix was added to the 384-well plate, and the enzymes and compounds were pre-incubated at room temperature for 10 minutes. […] Then, 15 μL of substrate mix was added to a 384-well plate and reacted at room temperature for 30 min and 60 min. The reaction was stopped by adding 30 μL of the stop buffer, and the conversion rate was read using a Caliper EZ Reader.
as §2, §3, §4, §5

Usually IC50 stands for the concentration needed to halve the response being measured.

For `COc1nc(N2CCNCC2)ccc1Nc1ncc2c(n1)N1CCN=C1C(c1ccc(Cl)cc1)=C2` [Compound 36, 6-(4-chlorophenyl)-N-(2-methoxy-6-(piperazin-1-yl)pyridin-3-yl)-8,9-dihydroimidazo[1′,2′:1,6]pyrido[2,3-d]pyrimidin-2-amine], the IC50 on PAK1 is more than 10 µM; at SRC it was 0.1 to 10 µM.

On to `COc1nc(N2CCNCC2)ccc1Nc1ncc2c(n1)N1CCN=C1C(c1ccc(-n3ccnc(C)c3=O)cc1)=C2` [Compound 42, 1-(4-(2-((2-methoxy-6-(piperazin-1-yl)pyridin-3-yl)amino)-8,9-dihydroimidazo[1′,2′:1,6]pyrido[2,3-d]pyrimidin-6-yl)phenyl)-3-methylpyrazin-2(1H)-one], for which the IC50 against PAK1 and on SRC was more than 10 µM throughout.

On to `CNc1ncc2c(n1)N1CCCN=C1C(c1ccc(-n3ccnc(C)c3=O)cc1Cl)=C2` [Compound 73, 1-(3-chloro-4-(2-(methylamino)-9,10-dihydro-8H-pyrido[1,6-a:2,3-d′]dipyrimidin-6-yl)phenyl)-3-methylpyrazin-2(1H)-one], for which the IC50 against PAK1 and at SRC was more than 10 µM throughout.

On to `CNc1ncc2c(n1)N1CCN=C1C(c1ccc(-c3cncc(C)n3)cc1Cl)=C2` [Compound 25, 6-(2-chloro-4-(6-methylpyrazin-2-yl)phenyl)-N-methyl-8,9-dihydroimidazo[1′,2′:1,6]pyrido[2,3-d]pyrimidin-2-amine], for which the IC50 was 0.1 to 10 µM on PAK1 and more than 10 µM at SRC.

As for `CCNc1ncc2c(n1)N1CCN=C1C(c1ccc(Cl)cc1Cl)=C2` [Compound 4, 6-(2,4-dichlorophenyl)-N-ethyl-8,9-dihydroimidazo[1′,2′:1,6]pyrido[2,3-d]pyrimidin-2-amine], the IC50 on PAK1 and on SRC was more than 10 µM throughout.

In the case of `OCc1cccc(Nc2ncc3c(n2)N2CCN=C2C(c2ccccc2Cl)=C3)c1` [Compound 13, (3-((6-(2-chlorophenyl)-8,9-dihydroimidazo[1′,2′:1,6]pyrido[2,3-d]pyrimidin-2-yl)amino)phenyl)methanol], the values for the IC50 against PAK1 and on SRC were 0.1 to 10 µM and less than 0.1 µM, respectively.

With `Fc1ccccc1Nc1ncc2c(n1)N1CCCN=C1C(c1cccc3[nH]ccc13)=C2` [Compound 57, N-(2-fluorophenyl)-6-(1H-indol-4-yl)-9,10-dihydro-8H-pyrido[1,6-a:2,3-d′]dipyrimidin-2-amine], the IC50 on PAK1 and on SRC was more than 10 µM in each case.

With `Fc1cc(N2CCNCC2)ccc1Nc1ncc2c(n1)N1CCN=C1C(c1ccc(Cl)cc1)=C2` [Compound 28, 6-(4-chlorophenyl)-N-(2-fluoro-4-(piperazin-1-yl)phenyl)-8,9-dihydroimidazo[1′,2′:1,6]pyrido[2,3-d]pyrimidin-2-amine], the results for the IC50 against PAK1 and at SRC were more than 10 µM and 0.1 to 10 µM, respectively.

For `COc1nc(N2CCNCC2)ccc1Nc1ncc2c(n1)N1CCN=C1C(c1ccccn1)=C2` [Compound 39, N-(2-methoxy-6-(piperazin-1-yl)pyridin-3-yl)-6-(pyridin-2-yl)-8,9-dihydroimidazo[1′,2′:1,6]pyrido[2,3-d]pyrimidin-2-amine], the IC50 against PAK1 and at SRC was more than 10 µM each time.

Take `CCN1CCN(c2ccc(Nc3ncc4c(n3)N3CCN=C3C(c3ccc(Cl)cc3Cl)=C4)cc2F)CC1` [Compound 3, 6-(2,4-dichlorophenyl)-N-(4-(4-ethylpiperazin-1-yl)-3-fluorophenyl)-8,9-dihydroimidazo[1′,2′:1,6]pyrido[2,3-d]pyrimidin-2-amine]: the results for the IC50 at PAK1 and on SRC were 0.1 to 10 µM and less than 0.1 µM, respectively.

In the case of `Fc1ccccc1Nc1ncc2c(n1)N1CCCN=C1C(c1cccc3[nH]ncc13)=C2` [Compound 58, N-(2-fluorophenyl)-6-(1H-indazol-4-yl)-9,10-dihydro-8H-pyrido[1,6-a:2,3-d′]dipyrimidin-2-amine], the results for the half-inhibitory concentration (IC50) on PAK1 and at SRC were more than 10 µM and 0.1 to 10 µM, respectively.

Take `CN1CCN(CCNc2ncc3c(n2)N2CCN=C2C(c2c(Cl)cccc2Cl)=C3)CC1` [Compound 48, 6-(2,6-dichlorophenyl)-N-(2-(4-methylpiperazin-1-yl)ethyl)-8,9-dihydroimidazo[1′,2′:1,6]pyrido[2,3-d]pyrimidin-2-amine]: the IC50 is more than 10 µM against PAK1 and 0.1 to 10 µM on SRC.

Take `Cn1nccc1Nc1ncc2c(n1)N1CCN=C1C(c1ccccc1Cl)=C2` [Compound 14, 6-(2-chlorophenyl)-N-(1-methyl-1H-pyrazol-5-yl)-8,9-dihydroimidazo[1′,2′:1,6]pyrido[2,3-d]pyrimidin-2-amine]: the IC50 against PAK1 and on SRC was more than 10 µM throughout.

`Clc1ccccc1C1=Cc2cnc(NC3COC3)nc2N2CCN=C12` [Compound 21, 6-(2-chlorophenyl)-N-(oxetan-3-yl)-8,9-dihydroimidazo[1′,2′:1,6]pyrido[2,3-d]pyrimidin-2-amine]: the IC50 against PAK1 and at SRC was more than 10 µM each time.

With `Clc1cnccc1C1=Cc2cnc(Nc3ccncc3)nc2N2CCN=C12` [Compound 46, 6-(3-chloropyridin-4-yl)-N-(pyridin-4-yl)-8,9-dihydroimidazo[1′,2′:1,6]pyrido[2,3-d]pyrimidin-2-amine], the IC50 at PAK1 and at SRC was more than 10 µM each time.

Consider `Cc1ccc(NC(=O)c2cccc(C(F)(F)F)c2)cc1C1=Cc2cnc(N)nc2N2CCCN=C12` [Compound 75, N-(3-(2-amino-9,10-dihydro-8H-pyrido[1,6-a:2,3-d′]dipyrimidin-6-yl)-4-methylphenyl)-3-(trifluoromethyl)benzamide], for which the IC50 was more than 10 µM on PAK1 and less than 0.1 µM on SRC.

As for `CNc1ncc2c(n1)N1CCCN=C1C(c1ccc(-n3cccc(C)c3=O)cc1Cl)=C2` [Compound 72, 1-(3-chloro-4-(2-(methylamino)-9,10-dihydro-8H-pyrido[1,6-a:2,3-d′]dipyrimidin-6-yl)phenyl)-3-methylpyridin-2(1H)-one], the IC50 against PAK1 is 0.1 to 10 µM; on SRC it was more than 10 µM.

Regarding `Fc1cc(Nc2ncc3c(n2)N2CCN=C2C(c2ccc(Cl)cc2Cl)=C3)ccc1N1CCNCC1` [Compound 1, 6-(2,4-dichlorophenyl)-N-(3-fluoro-4-(piperazin-1-yl)phenyl)-8,9-dihydroimidazo[1′,2′:1,6]pyrido[2,3-d]pyrimidin-2-amine], the IC50 at PAK1 and on SRC was less than 0.1 µM in each case.

On to `Fc1cc(Nc2ncc3c(n2)N2CCN=C2C(c2ccccc2Cl)=C3)ccc1N1CCNCC1` [Compound 11, 6-(2-chlorophenyl)-N-(3-fluoro-4-(piperazin-1-yl)phenyl)-8,9-dihydroimidazo[1′,2′:1,6]pyrido[2,3-d]pyrimidin-2-amine], for which the IC50 is 0.1 to 10 µM at PAK1 and less than 0.1 µM at SRC.

`Clc1cccc(Cl)c1C1=Cc2cnc(Nc3ccncc3)nc2N2CCN=C12` [Compound 52, 6-(2,6-dichlorophenyl)-N-(pyridin-4-yl)-8,9-dihydroimidazo[1′,2′:1,6]pyrido[2,3-d]pyrimidin-2-amine]: the IC50 against PAK1 is more than 10 µM; at SRC, less than 0.1 µM.

In the case of `Clc1cccc(Cl)c1C1=Cc2cnc(N3CCNCC3)nc2N2CCN=C12` [Compound 50, 6-(2,6-dichlorophenyl)-2-(piperazin-1-yl)-8,9-dihydroimidazo[1′,2′:1,6]pyrido[2,3-d]pyrimidine], the IC50 at PAK1 and at SRC was more than 10 µM each time.

Regarding `CCNc1ncc2c(n1)N1CCN=C1C(c1ccc(-n3ccnc(C)c3=O)cc1Cl)=C2` [Compound 24, 1-(3-chloro-4-(2-(ethylamino)-8,9-dihydroimidazo[1′,2′:1,6]pyrido[2,3-d]pyrimidin-6-yl)phenyl)-3-methylpyrazin-2(1H)-one], the IC50 is 0.1 to 10 µM at PAK1 and more than 10 µM on SRC.

Take `Clc1ccccc1C1=Cc2cnc(Nc3ccncc3)nc2N2CCN=C12` [Compound 16, 6-(2-chlorophenyl)-N-(pyridin-4-yl)-8,9-dihydroimidazo[1′,2′:1,6]pyrido[2,3-d]pyrimidin-2-amine]: the IC50 against PAK1 was more than 10 µM; at SRC, 0.1 to 10 µM.

As to `C1=C(c2ccncc2)C2=NCCN2c2nc(Nc3ccncc3)ncc21` [Compound 45, N,6-di(pyridin-4-yl)-8,9-dihydroimidazo[1′,2′:1,6]pyrido[2,3-d]pyrimidin-2-amine], the half-inhibitory concentration (IC50) at PAK1 and at SRC was more than 10 µM each time.
